Literature values in article PMC10017685 (Nature Communications, 2023).
Like-named read-outs stand apart in the source and are kept apart here.

System: human erythrocytes
Parameters: method as in DBAASP
Details: cited from earlier work
[1] = toxicity class label 1 or 0, meaning of the labels not given, DBAASP HC50 data, human erythrocytes, ref DBAASP

In the case of FLKWALKWAAK [DBAASP_16467], the “Class (dedicated toxicity dataset used for toxicity classifier evaluation)” value (“Class” below) [1] is listed as 0.
For FLPAALAGIGGILGKLF [DBAASP_9469], the “Class” value [1] is given as 0.
For FLPAIAGLAAKFLPKIFCAITKKC [DBAASP_13908], the “Class” value [1] is listed as 1.
In the case of FLPAIAGVAAKFLPKIFCAITKKC [DBAASP_13909], the “Class” value [1] is listed as 0.
In the case of FLPAIVGAAAKFLPKIFCAISKKC [DBAASP_4213], the “Class” value [1] is given as 1.
For FLPAVLKVAAHILPTAICAISRRC [DBAASP_5694], the “Class” value [1] is given as 0.
In the case of FLPFLKSILGKIL [DBAASP_13349], the “Class” value [1] is listed as 0.
In the case of FLPFLLSALPKVFCFFSKKC [DBAASP_6702], the “Class” value [1] is listed as 1.
In the case of FLPFVGNLLKGLL [DBAASP_1881], the “Class” value [1] is listed as 0.
For FLPGILKVAAK [DBAASP_16464], the “Class” value [1] is given as 0.
In the case of FLPGILKVAANVVPGVI [DBAASP_16463], the “Class” value [1] is given as 0.
In the case of FLPGILKVAANVVPGVICAITKKC [DBAASP_16462], the “Class” value [1] is listed as 0.
In the case of FLPGLIKAAVGVGSTILCKITKKC [DBAASP_8373], the “Class” value [1] is given as 0.
In the case of FLPIIAGAAAKVVEKIFCAISKKC [DBAASP_4217], the “Class” value [1] is listed as 1.
For FLPIIAGIAAKFLPKIFCTISKKC [DBAASP_4214], the “Class” value [1] is given as 1.
In the case of FLPIIAGMAAKVICAITKKC [DBAASP_4210], the “Class” value [1] is listed as 1.
In the case of FLPIIGQLLSGLL [DBAASP_4222], the “Class” value [1] is listed as 0.
In the case of FLPILAGLAAKIVPKLFCLATKKC [DBAASP_2201], the “Class” value [1] is listed as 1.
In the case of FLPILAGLAAKLVPKVFCSITKKC [DBAASP_4220], the “Class” value [1] is listed as 1.
For FLPILAGLAANILPKVFCSITKKC [DBAASP_4221], the “Class” value [1] is listed as 1.
For FLPILASLAAKFGPKLFSLVTKKS [DBAASP_4418], the “Class” value [1] is listed as 0.
In the case of FLPILASLAAKLGPKLFCLVTKKC [DBAASP_3537], the “Class” value [1] is listed as 1.
For FLPIVAGLAANFLPKIVCKITKKC [DBAASP_1889], the “Class” value [1] is given as 1.
For FLPIVGKLLSGLF [DBAASP_1883], the “Class” value [1] is listed as 0.
In the case of FLPIVGRLISGIL [DBAASP_13347], the “Class” value [1] is listed as 0.
For FLPIVGRLISGLL [DBAASP_5287], the “Class” value [1] is listed as 0.
In the case of FLPIVTNLLSGLL [DBAASP_2205], the “Class” value [1] is listed as 0.
In the case of FLPKILKVAAK [DBAASP_16465], the “Class” value [1] is given as 0.
In the case of FLPKWALKWAAK [DBAASP_16468], the “Class” value [1] is given as 0.
For FLPLIAGVAANFLPKIFCLISKKC [DBAASP_6168], the “Class” value [1] is listed as 1.
For FLPLIAGVAASILPKIFCFITKKC [DBAASP_6170], the “Class” value [1] is given as 1.
For FLPLIASLAANFVPKIFCKITKKC [DBAASP_3563], the “Class” value [1] is listed as 0.
For FLPLIASVAANLVPKIFCKITKKC [DBAASP_3564], the “Class” value [1] is given as 0.
For FLPLILPSIVTALSSFLKQG [DBAASP_8197], the “Class” value [1] is listed as 0.
For FLPLKKLRFGLL [DBAASP_5722], the “Class” value [1] is given as 0.
For FLPLLASLFSRLF [DBAASP_4935], the “Class” value [1] is listed as 1.
For FLPLLLAGLPKLLCLFFKKC [DBAASP_1470], the “Class” value [1] is listed as 1.
For FLPLVTMLLGKLF [DBAASP_3105], the “Class” value [1] is given as 1.
For FLPMLAGLAANFLPKIVCKITKKC [DBAASP_1892], the “Class” value [1] is listed as 1.
For FLPVIASVAAKVLPKVFCFITKKC [DBAASP_6169], the “Class” value [1] is listed as 1.
In the case of FLQGIIDTVGKWL [DBAASP_18165], the “Class” value [1] is given as 0.
For FLQGIWDTVGKWL [DBAASP_18166], the “Class” value [1] is listed as 0.
For FLQHIIGALGHLF [DBAASP_10244], the “Class” value [1] is given as 0.
For FLQHIIGALSHFF [DBAASP_10247], the “Class” value [1] is listed as 0.
For FLQHIIGALTHIF [DBAASP_10246], the “Class” value [1] is given as 0.
For FLRFAGSVIHGAGHLVHHIGVAL [DBAASP_11350], the “Class” value [1] is listed as 0.
In the case of FLRFIGSVIHGIGHLVHHIGVAL [DBAASP_4193], the “Class” value [1] is given as 0.
For FLSAITSILGKFF [DBAASP_13350], the “Class” value [1] is given as 0.
In the case of FLSAITSLLGKLL [DBAASP_4212], the “Class” value [1] is listed as 0.
For FLSALWGVAKSLF [DBAASP_18190], the “Class” value [1] is listed as 0.
For FLSGIVGMLGKLF [DBAASP_2204], the “Class” value [1] is listed as 1.
For FLSIIAKVLGSLF [DBAASP_3104], the “Class” value [1] is given as 1.
For FLSKIWDGVKSLL [DBAASP_18168], the “Class” value [1] is listed as 0.
In the case of FLSLALAALPKFLCLVFKKC [DBAASP_1468], the “Class” value [1] is given as 1.
For FLSLIPAAISAVSALANHF [DBAASP_10851], the “Class” value [1] is listed as 0.
For FLSLIPHIASGIASLVKNF [DBAASP_12390], the “Class” value [1] is given as 1.
For FLSLIPHIVSGVAALANHL [DBAASP_12391], the “Class” value [1] is given as 0.
For FLSLIPHIVSGVASIAKHF [DBAASP_3889], the “Class” value [1] is listed as 0.
For FLSLIPKAISAISALANHF [DBAASP_12627], the “Class” value [1] is listed as 0.
In the case of FLSLIPKAISAISALINHF [DBAASP_12628], the “Class” value [1] is given as 1.
For FLSLIPKAISAVSALANHF [DBAASP_12626], the “Class” value [1] is given as 0.
For FLSLIPKIAGGIAALAKHL [DBAASP_10835], the “Class” value [1] is given as 1.
For FLSLIPKIATGIAALAKHL [DBAASP_10833], the “Class” value [1] is listed as 1.
For FLSLIPKIISAISALIKHF [DBAASP_12630], the “Class” value [1] is given as 1.
For FLSLIPKIISAISALINHF [DBAASP_12629], the “Class” value [1] is listed as 1.
For FLSLLPHIASGIASLVSKF [DBAASP_12382], the “Class” value [1] is listed as 1.
In the case of FLSSIGKILGNLL [DBAASP_3103], the “Class” value [1] is given as 0.
For FLSTALKVAANVVPTLFCKITKKC [DBAASP_1888], the “Class” value [1] is listed as 0.
For FLSTLLNVASKVVPTLFCKITKKC [DBAASP_1891], the “Class” value [1] is listed as 0.
In the case of FLSTLLNVASNVVPTLICKITKKC [DBAASP_1890], the “Class” value [1] is listed as 1.
In the case of FLWALFKVASK [DBAASP_646], the “Class” value [1] is given as 0.
In the case of FPFLLSLIPSAISALKKL [DBAASP_18191], the “Class” value [1] is given as 0.
In the case of FPLTWLKWWKWKK [DBAASP_17184], the “Class” value [1] is given as 0.
In the case of FPVTFRFFKFFKG [DBAASP_9715], the “Class” value [1] is given as 0.
For FPVTWGWWKWWKG [DBAASP_9714], the “Class” value [1] is given as 0.
For FPVTWKWWKWWKG [DBAASP_7114], the “Class” value [1] is given as 0.
For FPVTWPTKWLKG [DBAASP_9721], the “Class” value [1] is given as 0.
In the case of FPVTWPTKWRKG [DBAASP_9717], the “Class” value [1] is given as 0.
In the case of FPVTWPTKWWEG [DBAASP_9720], the “Class” value [1] is listed as 0.
For FPVTWPTKWWKG [DBAASP_7115], the “Class” value [1] is given as 0.
In the case of FPVTWPTKWWKS [DBAASP_9716], the “Class” value [1] is listed as 0.
In the case of FPVTWRWWKWWKG [DBAASP_716], the “Class” value [1] is listed as 0.
In the case of FVDLKKIANIINSIF [DBAASP_6701], the “Class” value [1] is listed as 0.
In the case of FWGALAKGALKLIPSLFSSFSKKD [DBAASP_948], the “Class” value [1] is listed as 1.
In the case of FWGFLGKLAMKAVPSLIGGNKK [DBAASP_8440], the “Class” value [1] is given as 0.
For FWGFLGKLAMKAVPSLIGGNKSSSK [DBAASP_8439], the “Class” value [1] is listed as 0.
For FWGKLWEGVKNAI [DBAASP_3480], the “Class” value [1] is given as 0.
In the case of FWSTIWNAAKSLI [DBAASP_18164], the “Class” value [1] is given as 1.
In the case of FWSTLLSIGKSLL [DBAASP_18163], the “Class” value [1] is given as 1.
In the case of GFCWRACVYRNGVRVCYRRCN [DBAASP_17226], the “Class” value is given as 0.
For GFGMALKLLKKVL [DBAASP_3442], the “Class” value [1] is given as 0.
For GFGSLLGKALRLGANVL [DBAASP_3772], the “Class” value [1] is given as 0.
In the case of GFKDLLKGAAKALKKTVLF [DBAASP_4908], the “Class” value [1] is listed as 0.
For GFKDLLKGAAKALVKAVLF [DBAASP_4918], the “Class” value [1] is given as 1.
In the case of GFKDLLKGAAKALVKTVKF [DBAASP_4910], the “Class” value [1] is listed as 0.
For GFKDLLKGAAKALVKTVLF [DBAASP_2302], the “Class” value [1] is given as 0.
For GFKDLLKGAAKALVKTVLK [DBAASP_11235], the “Class” value [1] is given as 0.
For GFKDLLKGAKKALVKTVLF [DBAASP_4907], the “Class” value [1] is given as 0.
For GFKDLLKKAAKALVKTVLF [DBAASP_4906], the “Class” value [1] is given as 1.
